Assays:
[1] = test system: medium spiny neurons (MSNs) expressing mHTTex1; test: Acutely transfected rat brain slice culture assay; type: cell-based
Method: Coronal brain slices (250 μm thick) containing both cortex and striatum were prepared from CD Sprague-Dawley rat pups at postnatal day 10 and placed into interface culture as previously described (Reinhart et al., 2011). A biolistic device (Helios Gene Gun; Bio-Rad) was then used to co-transfect the brain slices with YFP visual reporter and a 90 amino acid mutant huntingtin plasmid containing human htt exon-1 harboring a 73 CAG repeat to induce neurodegeneration of medium spiny neurons (MSNs). mHTTex1 expression induced progressive neurodegeneration of medium spiny neurons (MSNs) compared to controls over a period of 4 days.
MIND4 was added to the culture wells at the time of slice preparation and transfection to a final DMSO concentration of 0.1%; this concentration of DMSO was also added to all control wells. The positive control used for these experiments was the pan-caspase inhibitor Boc-D-FMK at 100 μM (Varna et al., 2007). YFP co-transfected MSNs were identified 4 days after incubation by their location within the striatum and by their characteristic dendritic arborization as previously described (Crittenden et al., 2010; Reinhart et al., 2011). […] Ordinate axis expresses the mean numbers of healthy YFP-positive MSNs per striatal region in each brain slice. […]

[2] = test system: dopaminergic neurons; test: MPTP mouse model of Parkinson's disease; type: in vivo
Method: Male C57BL/6 mice (˜25 g) from Charles River Laboratories, Wilmington, Mass. were housed in temperature- and humidity-controlled rooms with a 12 hr dark: light cycle and had free access to food and water. Subacute MPTP paradigm (20 mg/kg i.p. injection once daily for 4 days) was employed to test dose response of MIND4 at 30 mg/kg, 60 mg/kg, or 90 mg/kg (i.p. 10 min before and 50 min after each MPTP injection). The effective dose of 60 mg/kg was used in the subsequent experiments (i.p. 10 min before and 50 min after each MPTP injection). Control animals received saline (control for MPTP) and 10% propylene glycol and 90% dextrose as vehicle for MIND4 by i.p. Mice were sacrificed 7 days after the last MPTP administration and striatal DA and metabolite HVA were determined by high performance liquid chromatography (HPLC) coupled with electrochemical detection (ECD) Immunostaining for tyrosine hydroxylase (TH), a marker for dopaminergic neurons was performed using mouse anti-TH antibody (Sigma, ST. Louis, Mo.). Total numbers of TH positive neurons in the substantia nigra (SN) were counted under blinded conditions using the Bioquant Image Analysis System (R&M Biometrics, Nashville, Tenn.).
The protective effects of CPD4 have been confirmed in both acute and subchronic PTP paradigms by comprehensive behavioral, neurochemical, and neuropathological evaluations (FIG. 18). CPD4 was administrated i.p. at 20 mg/kg 10 min before and 50 min after MPTP 20 mg/kg i.p. once daily for 4 days (subchronic regimen) (FIG. 18A). High performance liquid chromatography (HPLC) coupled with electrochemical detection was used to show attenuated dopamine (DA) loss induced by MPTP in the striatum (FIG. 18B). Dopaminergic cell counts in the substantia nigra (SN) were also measured in treated mice and compared to the control (MPTP group) (FIG. 18C). Tyrosine hydroxylase (TH) immunostained dopaminergic neurons were also imaged in the SN (FIG. 18D).

[3] = test system: LUHMES cells overexpressing aSyn; test: Viability assay (adenylate kinase release) in differentiated LUHMES cells overexpressing aSyn; type: cell-based; details: 0.4 μM and 1 μM, 96 hr
Method: LUHMES cells were maintained as proliferating cultures and differentiated into post-mitotic-like neurons on Nunclon plates and flasks, pre-coated with 50 μg/mL poly-L-ornithine (Sigma) and 1 μg/mL fibronectin (Sigma). Specifically, 8×10^6 proliferating LUHMES cells were seeded into a T175 flask containing proliferation medium, consisting of advanced DEMEM/F12 (Invitrogen), 2 mM L-glutamine (Sigma-Aldrich), 1×N2 supplement (Invitrogen) and 40 ng/mL recombinant human bFGF (R&D Systems). After 24 hr, proliferation medium was replaced with differentiation medium, composed of advanced DMEM/F12 (Invitrogen), 2 mM L-glutamine (Sigma-Aldrich), 1×N2 supplement (Invitrogen), 1 mM dibutyryl 3′, 5′-cyclic adenosine monophosphate (Sigma-Aldrich), 2.25 μM tetracycline and 2 ng/mL recombinant human GDNF (R&D Systems). 48 hr later, cells were trypsinized and seeded into 24-well plates, containing 1 mL of differentiation medium and 250,000 cells/well.
For lenti-virus based expression the following transfer plasmids have been constructed. […] The measurement of transgene expression has been determined by qRT PCR using SYBR GREEN, after infection of 293-Hek-cells, and specific primers to the woodchuck hepatitis virus posttranscriptional regulatory element (WPRE) as described previously (PMID: 12718761). […]

Row | SMILES | Neuroprotection relative to Boc-D-FMK at 100 μM ([1]; 10 μM) | Protection against mHTTex1-induced neurodegeneration of MSNs ([1]; concentration-dependent, 4 days) | MPTP induced DA loss in the striatum ([2]; 60 mg/kg i.p.) | Residual DA and DA turnover rate (HVA/DA) ([2]; 60 mg/kg vs MPTP group) | Dopaminergic neurons in the SN (stereological analysis) ([2]; vs MPTP alone group) | Protection against αSyn toxicity [3]
1 | O=[N+]([O-])c1ccc(Sc2nnc(COc3ccccc3)n2-c2ccccc2)c2ncccc12 [MIND4, 5-nitro-8-{[5-(phenoxymethyl)-4-phenyl-4H-1,2,4-triazol-3-yl]thio}quinoline] | comparable to the efficacy of a reference compound | significantly protected against mHTTex1-induced neurodegeneration | mild but significant protection | increased level of residual DA and decreased DA turnover rate | more remaining dopaminergic neurons | only mild protection
2 | O=[N+]([O-])c1ccc(Sc2nnc(COc3ccccc3)n2-c2ccccc2)nc1 [MIND4-17] | – | – | – | – | – | significant protective effects

From patent US9737525B2, “Small molecule activators of NRF2 pathway” (The General Hospital Corporation, priority 2013, dated 2017)
